Reference: patent publication US20150315211A1, “SMALL MOLECULES FOR THE MODULATION OF MCL-1 AND METHODS OF MODULATING CELL DEATH, CELL DIVISION, CELL DIFFERENTIATION AND METHODS OF TREATING DISORDERS” (priority 2010, published 2015)
Where two headings read alike, the source gives them in different places.

What was measured:
[1] = test system: MCL-1ΔNΔC; assay: High-throughput competitive FP binding screen, FITC-MCL-1 SAHB/MCL-1ΔNΔC interaction
[2] = molecular target: BCL-XLΔC (Homo sapiens, UniProt Q07817); assay: High-throughput competitive FP binding screen, FITC-BAD BH3/BCL-XLΔC interaction
[3] = molecular target: MCL-1ΔNΔC (Homo sapiens, UniProt Q07820); assay: High-throughput competitive FP binding screen, FITC-MCL-1 SAHB/MCL-1ΔNΔC interaction; parameters: the C-terminal alpha-helix was deleted from each of these constructs; GST (N, cleaved yes); made in house
[4] = selectivity for MCL-1ΔNΔC over BCL-XLΔC targeting (BCL-XL % Bound minus MCL-1 % Bound)
[5] = FITC-BAD BH3/BCL-XLΔC interaction pair, competitive FP screen
[6] = FITC-MCL-1 SAHB/MCL-1ΔNΔC interaction pair, competitive FP screen

Sequence of MCL-1ΔNΔC (Homo sapiens, UniProt Q07820) (Q07820 172-320 limits assumed, stated change not applied): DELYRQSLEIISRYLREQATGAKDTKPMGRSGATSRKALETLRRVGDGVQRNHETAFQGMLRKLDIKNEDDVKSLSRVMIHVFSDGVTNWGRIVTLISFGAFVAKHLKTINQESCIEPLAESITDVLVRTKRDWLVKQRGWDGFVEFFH
Sequence of BCL-XLΔC (Q07817 1-212 limits assumed, stated change not applied): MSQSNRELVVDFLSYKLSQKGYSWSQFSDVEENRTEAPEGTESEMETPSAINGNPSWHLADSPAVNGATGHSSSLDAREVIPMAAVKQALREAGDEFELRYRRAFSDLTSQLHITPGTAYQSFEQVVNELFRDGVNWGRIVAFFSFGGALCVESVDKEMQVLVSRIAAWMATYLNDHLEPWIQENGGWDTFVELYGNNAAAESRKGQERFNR

Row | SMILES | Spec Values [1] | BCL-XL % Bound [2] [%] | MCL-1% Bound [3] [%] | Spec Values [1, 4] | BCL-XL % Bound [2, 5] [%] | MCL-1% Bound [3, 6] [%]
1 | Oc1c(Cl)cc(Cl)c(Cl)c1Cc1c(O)c(Cl)cc(Cl)c1Cl [drawing 274] | 59.35 | 100.4 | 41.01 | – | – | –
2 | CCC(c1nnc(SCC(=O)NCCc2ccc(Cl)cc2Cl)o1)N(C)C (stereo not drawn) | – | – | – | 52.14 | 101.6 | 49.44
3 | CC1CCc2c(sc3[nH]c(=S)sc(=N)c23)C1 (stereo not drawn) | – | – | – | 64.71 | 83.66 | 18.95
4 | C=CCN1C(=O)/C(=C\c2ccc(OC)cc2)C(=O)NC1=S | 76 | 95.09 | 19.08 | – | – | –
5 | O=C1NC(=O)N(CCC2=CCCCC2)C(=O)/C1=C/c1cnc(-c2ccccc2)nc1 [drawing 249] | 63.4 | 106.9 | 43.51 | – | – | –
6 | Cc1nc2sccn2c1-c1nc(-c2ccc(Br)o2)c(C(=O)c2ccc3c(c2)OCCO3)s1 | – | – | – | 53.55 | 93.3 | 39.75
7 | c1ccc(-c2ccc3c(c2)c2c4n3CCN=C4CCC2)cc1 | – | – | – | 47.9 | 68.24 | 20.34
8 | CCOc1ccc2c(c1)C(C)=CC(C)(C)N2C(=O)CSc1nnc(C2CC2)n1C | – | – | – | 55.24 | 95.37 | 40.13
9 | Cc1sc(-n2c(C)cc(C=C3C(=O)NC(=S)NC3=O)c2C)c(C#N)c1C | 56.82 | 102 | 45.2 | – | – | –
10 | CSc1sc(C(=O)/C=C/N(C)C)c(-c2cccs2)c1C#N | – | – | – | 50.48 | 30.42 | −20.06
11 | COc1ccc(C(=O)COC(=O)c2c3c(nc4ccccc24)CCN(C)C3)cc1 | – | – | – | 119.7 | 88.79 | −30.96
12 | Cc1ccc2c(c1C)NC(C(=O)O)C1CC=CC21 (stereo not drawn) | – | – | – | 68.3 | 82.8 | 14.6
13 | CS(=O)(=O)CS(=O)(=O)NNc1ncc(C(F)(F)F)cc1Cl | – | – | – | 63.45 | 104.7 | 41.29
14 | O=C1C=CC(=O)N1CCc1ccc(Cl)cc1 | – | – | – | 55.93 | 97.07 | 41.14
15 | C/C(=N\OCc1ccc(C(=O)N2CCCCC2)o1)c1cccc(C(F)(F)F)c1 | – | – | – | 55.34 | 110.8 | 55.48
16 | O=C(NCc1ccco1)c1ccc(-c2cc3ccccc3oc2=O)cc1 | – | – | – | 47.79 | 115.7 | 67.95
17 | Cc1occc1-c1nnc2sc(Cc3cccc4ccccc34)nn12 | – | – | – | 70.8 | 129.5 | 58.7
18 | O=C1/C(=C\C=C\c2ccco2)SC(=S)N1NCc1ccccc1O | – | – | – | 76.1 | 95.8 | 19.8
19 | O=C(CCN1C(=O)/C(=C\C=C\c2ccco2)SC1=S)Nc1ccc(C(=O)O)c(O)c1 | – | – | – | 54.54 | 76.09 | 21.54
20 | N#CSC(C#N)Cc1ccccc1 (stereo not drawn) | – | – | – | 53.23 | 103.6 | 50.39

Row | SMILES | Spec Values [1] | BCL-XL % Bound [2] [%] | MCL-1% Bound [3] [%] | Spec Values [1, 4] | BCL-XL % Bound [2, 5] [%] | MCL-1% Bound [3, 6] [%]
21 | Cc1ccc(NC(=S)Nc2ccc3nc(-c4ccco4)c(-c4ccco4)nc3c2)cc1 | – | – | – | 78.01 | 75.97 | −2.047
22 | O=c1c(O)c(-c2ccc(O)c(O)c2)oc2cc(O)cc(O)c12 [drawing 167] | – | – | – | 88.65 | 105.3 | 16.69
23 | N#C/C(=C/c1cn(Cc2ccc(C(=O)O)o2)c2ccccc12)c1ccc(F)cc1 | – | – | – | 60.36 | 65.03 | 4.673
24 | O=C(O)C(Cc1ccccc1)N1C(=O)/C(=C/C=C/c2ccco2)SC1=S (stereo not drawn) | 97.44 | 87.83 | −9.611 | – | – | –
25 | C=CCN1C(=O)/C(=C2/C(=O)Nc3ccccc32)c2ccccc21 | – | – | – | 47.06 | 77.55 | 30.48
26 | c1coc(C2Nc3cccc4cccc(c34)N2)c1 | – | – | – | 57.32 | 106.3 | 48.94
27 | CC1=C(C#N)C(=O)N=C(O)/C1=C\c1ccc(-c2ccc(S(N)(=O)=O)cc2)o1 [drawing 192] | – | – | – | 76.4 | 93.7 | 17.4
28 | O=C(O)CC1NC(=S)N(Cc2ccccc2)C1=O (stereo not drawn) | – | – | – | 50.19 | 98.89 | 48.71
29 | O=C(Nc1ccccc1)C(C(F)(F)F)C(F)(F)F | – | – | – | 70.63 | 82.61 | 11.98
30 | CC(C)(C)c1ccc(-c2nnc(S)[nH]2)cc1 | – | – | – | 48.83 | 96.8 | 47.97
31 | CN1C(=O)C2(NN=C(c3ccccc3)S2)c2cc(Br)ccc21 (stereo not drawn) | – | – | – | 63.14 | 81.72 | 18.57
32 | Cc1cc(NC(=O)/C=C/c2ccco2)n(-c2nc3ccccc3n2Cc2cccc(Oc3ccccc3)c2)n1 | – | – | – | 48.1 | 104.4 | 56.33
33 | N#CC1=C(c2ccc(Cl)cc2)C2CSc3ccccc3C2NC1=O (stereo not drawn) | – | – | – | 68.29 | 87.67 | 19.37
34 | O=c1oc2c(O)c(O)cc3c(=O)oc4c(O)c(O)cc1c4c23 [drawing 20] | – | – | – | 89.32 | 90.58 | 1.26
35 | CCN(CC)c1cc(C)c2cc(NC(=O)/C=C/c3ccco3)ccc2n1 | – | – | – | 68.15 | 79.88 | 11.73
36 | O=C1C(Sc2nc[nH]n2)=C/C(=N/S(=O)(=O)c2cccs2)c2ccccc21 | – | – | – | 73.41 | 93.16 | 19.75
37 | O=c1cc(-c2ccccc2)oc2cc(O)c(O)c(O)c12 [Baicailen, reference compound] | – | – | – | 93.84 | 104.2 | 10.32
38 | CN(Cc1ccc(-c2ccc(Br)cc2)o1)C(=O)c1ccc(S(N)(=O)=O)cc1 | – | – | – | 45.66 | 115.2 | 69.53
39 | Cc1c(Cl)cccc1N1C(=O)CC(Sc2nnnn2-c2ccccc2)C1=O (stereo not drawn) | – | – | – | 45.07 | 97.5 | 52.43
40 | COC(=O)c1ccc(-c2ccc(/C=C3/C(=O)N(C)C(=O)C(C#N)=C3C)o2)cc1 | – | – | – | 52.77 | 91.59 | 38.82

Row | SMILES | Spec Values [1] | BCL-XL % Bound [2] [%] | MCL-1% Bound [3] [%] | Spec Values [1, 4] | BCL-XL % Bound [2, 5] [%] | MCL-1% Bound [3, 6] [%]
41 | Oc1ccc2cc3c4cc(Br)ccc4nc-3oc2c1O | – | – | – | 76.69 | 90.07 | 13.37
42 | Cc1ccc(C(c2c(O)ccc3ccccc23)N2CCOCC2)o1 (stereo not drawn) | – | – | – | 59.04 | 100.8 | 41.79
43 | Cc1ccccc1-c1nnc(SCC(=O)NC(=O)Nc2ccccc2F)n1C | – | – | – | 58.58 | 98.1 | 39.52
44 | [Na+].[Na+].[O-]c1c(Cl)cc(Cl)cc1Sc1cc(Cl)cc(Cl)c1[O-] | – | – | – | 73.22 | 100.4 | 27.2
45 | O=C1NC(=O)/C(=C/c2ccc(-c3ccc(S(=O)(=O)N4CCOCC4)cc3)o2)S1 | – | – | – | 69.33 | 107.9 | 38.57
46 | O=S(=O)(Nc1ccc(O)c2ccccc12)c1ccccc1 | – | – | – | 76.72 | 96.39 | 19.67
47 | CCN(CC)c1ccc2cc(C(N)=O)/c(=N\NC(=O)c3ccccc3)oc2c1 | – | – | – | 135.9 | 129.3 | −6.592
48 | O=c1cc(-c2ccccc2)oc2cc(O)c(O)c(O)c12 [drawing 19] | – | – | – | 93.84 | 104.2 | 10.32
49 | Oc1ccc(/C=N/c2cccc(C(F)(F)F)c2)c(O)c1 | – | – | – | 47.26 | 75.68 | 28.42
50 | N#CC1=C(c2ccc(Cl)cc2)COC1=O | – | – | – | 60.84 | 88.12 | 27.28
51 | CC1=C(C#N)C(=O)N=C(O)/C1=C\c1ccc(-c2ccc(S(N)(=O)=O)cc2)o1 [drawing 84] | – | – | – | 76.4 | 98.2 | 21.8
52 | CCOc1cccc(CNc2ccc(N3CCCC3)cc2)c1 | – | – | – | 47.31 | 82.24 | 34.93
53 | O=C(O)c1cccc(-c2ccc(CC3Sc4ccccc4C3=O)o2)c1 (stereo not drawn) | – | – | – | 64.25 | 95.42 | 31.17
54 | COc1cc(C(c2nnnn2C2CCCCC2)N2CCc3ccccc3C2)ccc1O (stereo not drawn) | – | – | – | 48.33 | 105.8 | 57.44
55 | CCN1C(=O)C2Cc3cc(OC)c(OC)cc3CN2C1=O (stereo not drawn) | – | – | – | 51.9 | 91.73 | 39.84
56 | N#Cc1cc2c([nH]c1=S)CCC2 | – | – | – | 54.04 | 86.64 | 32.6
57 | O=C(c1ccc(O)cc1)N1CCN(c2cccc(Cl)c2)CC1 | – | – | – | 62.99 | 90.71 | 27.72
58 | COc1ccc(N(C)C(=S)Nc2ccc3nc(-c4ccco4)c(-c4ccco4)nc3c2)cc1 [drawing 44] | – | – | – | 72.84 | 81.17 | 8.332
59 | COC(=O)c1ccc(C(c2cc3c(cc2O)OCO3)N2CCN(c3ccccc3)CC2)cc1 (stereo not drawn) | – | – | – | 47.71 | 96.46 | 48.75
